In brackets after ≈: the same amount, converted by molar mass. Like-named read-outs stand apart in the source and are kept apart here.
Tests used:
[1] = system: Plasmodium falciparum; experiment: In vitro antimalarial assay (Plasmodium falciparum); format: cell-based; conditions: for IC50: Plasmodium falciparum
Method: (§1) The protozoan Plasmodium falciparum is a causative agent of malaria, the single most critical infectious disease of mankind. The in vitro antimalarial activity of the C3 -substituted trioxanes was determined according to the method described in Posner et al. (13). The in vivo antimalarial activity was determined as described in Peters et al. (14).
Tables 1 and 2 present a tabulation of a number of compounds which have been synthesized along with the IC50 (in nM).

[2] = system: P. berghei; experiment: In vivo antimalarial assay, mice infected with P. berghei malaria; conditions: Plasmodium berghei
Method: as §1

[3] = Water solubility in pH 7.4 aqueous solution; format: physicochemical
[4] = system: erythrocytes; experiment: Hemolysis of erythrocytes on daily IV administration to rats for 14 days; format: in vivo, rat; conditions: daily for 14 days, artelinic acid even at a dose four-fold less than MHP-34a
Text: 4. They are nontoxic in therapeutic dose range.

[5] = system: rats; conditions: high doses; cited from earlier work
[6] = system: mouse neuroblastoma cells; conditions: cited from earlier work
[7] = C3-Aryl C12-Methoxy Trioxanes, Expansion data (quadruplicate measurements), read-out: Antimalarial Activity, IC50 (Table 1)
[8] = C3-Substituted C12-Methoxy Trioxanes, Expansion data (quadruplicate measurements), read-out: Antimalarial Activity, IC50 (Table 2)
[9] = in vitro, read-out: In vitro antimalarial assay: IC50
[10] = IV, mice infected with P. berghei, read-out: ED90, IV administration

Molecule `CO[C@H]1O[C@@]2(c3ccc(-c4ccccc4)cc3)CC[C@H]3CCCC[C@]31OO2` (relative stereo) [8b] has an IC50 [1, 7] of 68 nM.
`CO[C@@H]1O[C@@]2(c3ccc(F)cc3C)CC[C@H]3CCCC[C@]31OO2` (relative stereo) [10a] showed an IC50 [1, 7] of 99 nM.
For `CO[C@H]1O[C@@]2(CF)CC[C@H]3CCCC[C@]31OO2` (relative stereo) [118b], the IC50 [1, 8] was 160 nM.
Work on `COc1ccc(C23CCC4CCCCC4(OO2)C(OC)O3)cc1` (stereo not drawn) [compound 11] yielded an IC50 [1, 7] greater than 2500 nM.
With `C[C@H]1[C@@H](OCc2ccc(C(=O)O)cc2)O[C@@H]2O[C@@]3(C)CC[C@H]4[C@H](C)CC[C@@H]1[C@@]24OO3` [artelinic acid, Artelinic acid, reference compound] the ED50 ([2]; oral, mice infected with P. berghei, comparator, read-out: SD50, oral) was 56 mg/kg, the solubility [3] was roughly 2 mM (≈ 0.837 mg/mL) and the hemolysis of erythrocytes [4] was “time-dependent hemolysis”.
For `CO[C@@H]1O[C@@]2(c3ccco3)CC[C@H]3CCCC[C@]31OO2` (relative stereo) [compound 13], the IC50 [1, 7] was 600 nM.
For `CO[C@H]1O[C@@H]2O[C@@]3(C)CC[C@H]4[C@H](C)CC[C@@H]([C@H]1C)[C@@]24OO3` [artemether], the neurotoxicity in rats [5] is given as “neurotoxicity has been seen”.
With `CO[C@H]1O[C@@]2(c3ccc(C(=O)O)cc3)CC[C@H]3CCCC[C@]31OO2` (relative stereo) [MHP-34b, 3-(4'-Carboxyphenyl)-12β-methoxy Trioxane] the IC50 [1, 9] was 150 nM, the ED90 [2, 10] was 60 mg/kg/day and the solubility [3] was roughly 60 mM (≈ 20.1 mg/mL).
`C[C@H]1[C@H](c2cccn2CC(=O)O)O[C@@H]2O[C@@]3(C)CC[C@H]4[C@H](C)CC[C@@H]1[C@@]24OO3` [MHP-153, 10a-(1'-(Carboxymethyl)pyrrol-2'-yl)-10-deoxoartemisinin] gave an IC50 [1, 9] of 36 nM.
In the case of `C[C@H]1[C@@H](O)O[C@@H]2O[C@@]3(C)CC[C@H]4[C@H](C)CC[C@@H]1[C@@]24OO3` [dihydroartemesisin, Dihydroartemisinin], the “neurotoxicity in mouse neuroblastoma cells” value [6] is given as “neurotoxicity has been seen”.
Molecule `CO[C@@H]1O[C@@]2(c3ccc(F)cc3)CC[C@H]3CCCC[C@]31OO2` (relative stereo) [9a] has an IC50 [1, 7] of 65 nM.
`CO[C@@H]1O[C@@]2(c3ccc(C(=O)O)cc3)CC[C@H]3CCCC[C@]31OO2` (relative stereo) [MHP-34a, 3-(4'-Carboxyphenyl)-12α-methoxy Trioxane] gave an IC50 [1, 9] of 1020 nM, an ED50 ([2]; po, read-out: In vivo antimalarial assay: ED50, oral) of 9.5 mg/kg and an ED50 ([2]; sc, read-out: In vivo antimalarial assay: ED50, subcutaneous) of 19.5 mg/kg. It also gave an ED90 ([2]; sc, read-out: In vivo antimalarial assay: ED90, subcutaneous) of 92 mg/kg/day, an ED90 [2, 10] of 60 mg/kg/day and an ED90 ([2]; oral, mice infected with P. berghei, read-out: In vivo antimalarial assay: ED90, oral) of 46 mg/kg/day. For the same molecule, the solubility [3] was roughly 90 mM (≈ 30.1 mg/mL) and the hemolysis of erythrocytes [4] was “no hemolysis of erythrocytes”.
With `O=C(O)c1ccc(CO[C@@H]2O[C@@]3(c4ccc(F)cc4)CC[C@H]4CCCC[C@]42OO3)cc1` (relative stereo) [(p-Carboxy)benzyloxy Trioxane (α)-7a] the IC50 [1, 9] was 47 nM.
`CO[C@@H]1O[C@@]2(c3ccc(C(F)(F)F)cc3)CC[C@H]3CCCC[C@]31OO2` (relative stereo) [120a] showed an IC50 [1, 8] of 39 nM.
In the case of `C[C@H]1[C@H](C(=O)O)O[C@@H]2O[C@@]3(C)CC[C@H]4[C@H](C)CC[C@@H]1[C@@]24OO3` [MHP-108, 10α-Carboxy-10-deoxoartemisinin], the IC50 [1, 9] is reported as 570 nM.
Molecule `C[C@@H]1CC[C@H]2[C@@H](C)C(=O)O[C@@H]3O[C@@]4(C)CC[C@@H]1[C@]32OO4` [Artemisinin, artemisinin, reference compound] has an IC50 [1, 9] of 10 nM.
For `CO[C@H]1O[C@@]2(c3ccccc3)CC[C@H]3CCCC[C@]31OO2` (relative stereo) [16b], the IC50 [1, 7] was 38 nM.
With `CO[C@@H]1O[C@@]2(c3ccc(CO)cc3)CC[C@H]3CCCC[C@]31OO2` (relative stereo) [12a] the IC50 [1, 7] was 78 nM.
With `CO[C@H]1O[C@@]2(c3ccc(F)cc3C)CC[C@H]3CCCC[C@]31OO2` (relative stereo) [10b] the IC50 [1, 7] was 34 nM.
`CO[C@H]1O[C@@]2(c3ccc(F)cc3)CC[C@H]3CCCC[C@]31OO2` (relative stereo) [9b] showed an IC50 [1, 7] of 30 nM.
`CCOC(=O)Cn1cccc1[C@@H]1O[C@@H]2O[C@@]3(C)CC[C@H]4[C@H](C)CC[C@@H]([C@H]1C)[C@@]24OO3` [MHP-84, 10a-(1'-(Ethoxycarbonylmethyl)pyrrol-2'-yl)-10-deoxoartemisinin] showed an IC50 ([1]; printed as In vivo, read-out: In vitro antimalarial assay: IC50) of 9.1 nM.
Molecule `CO[C@H]1O[C@@]2(c3ccc(C(F)(F)F)cc3)CC[C@H]3CCCC[C@]31OO2` (relative stereo) [120b] has an IC50 [1, 8] of 53 nM.
For `COC1OC2(CCC(C)C)CCC3CCCCC31OO2` (stereo not drawn) [C3 -(CH3)2 CHCH2 CH2 analog], the “potency increased by a factor of, over the C3 methyl analog” value ([1]; relative to C3 methyl analog) was 5.
With `CO[C@@H]1O[C@@]2(c3ccccc3)CC[C@H]3CCCC[C@]31OO2` (relative stereo) [16a] the IC50 [1, 7] was 100 nM.
In the case of `CO[C@@H]1O[C@@]2(c3ccc(-c4ccccc4)cc3)CC[C@H]3CCCC[C@]31OO2` (relative stereo) [8a], the IC50 [1, 7] is reported as 76 nM.
In the case of `O=C(O)c1ccc(CO[C@H]2O[C@@]3(c4ccc(F)cc4)CC[C@H]4CCCC[C@]42OO3)cc1` (relative stereo) [(p-Carboxy)benzyloxy Trioxane (β)-7a], the IC50 [1, 9] is reported as 40 nM.
Work on `CO[C@H]1O[C@@]2(c3ccc(CO)cc3)CC[C@H]3CCCC[C@]31OO2` (relative stereo) [12b] yielded an IC50 [1, 7] of 15 nM.
`CO[C@@H]1O[C@@]2(CF)CC[C@H]3CCCC[C@]31OO2` (relative stereo) [118a] showed an IC50 [1, 8] of 320 nM.

— patent US6136847A, “Water-soluble trioxanes as potent and safe antimalarial agents” (Johns Hopkins University, priority 1999, dated 2000)
